Experimental data taken from the supplement of paper PMC12137928.
Where a name gives a salt, the structure may show the parent alone.

Tested on: HCT116
Settings: 72 h
How it was run: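 Four-parameter Hill fits gave IC50 and maximal efficacy. The data were CellTiter-Glo luminescence readings in HCT116 cells, normalized so that vehicle was 0% and positive control was -100%, with pattern correction afterwards.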

| SMILES | IC50 cell viability (ICRF193 0 nM) | IC50 cell viability (ICRF193 200 nM) |
| --- | --- | --- |
| NCCCC[C@H](NC(=O)[C@@H]1CCCN1C(=O)[C@@H]1CSSC[C@H](N)C(=O)N[C@@H](Cc2ccccc2)C(=O)N[C@@H](Cc2ccccc2)C(=O)N[C@@H](CCC(N)=O)C(=O)N[C@@H](CC(N)=O)C(=O)N1)C(=O)NCC(N)=O [Felypressin] | > 45.8 µM | > 45.8 µM |
| c1ccc2c(c1)CCCC2C1=NCCN1 (stereo not given) [Tetrahydrozoline HCl] | > 45.8 µM | > 45.8 µM |
| O=C1c2cccc(O)c2C(=O)c2c(O)cccc21 [Danthron] | > 45.8 µM | > 45.8 µM |
| CCC(=O)O[C@@](Cc1ccccc1)(c1ccccc1)[C@@H](C)CN(C)C [Levopropoxyphene napsylate] | > 45.8 µM | > 45.8 µM |
| CCC(=O)O[C@H]1CC[C@H]2[C@@H]3CCC4=CC(=O)CC[C@]4(C)[C@H]3CC[C@]12C [Testosterone propionate] | > 45.8 µM | > 45.8 µM |
| C[C@@H]1NC(=O)[C@@H](N)CNC(=O)[C@H]([C@H]2CCNC(N)=N2)NC(=O)/C(=C/NC(N)=O)NC(=O)[C@H](CNC(=O)C[C@@H](N)CCCN)NC1=O [Capreomycin IB] | > 45.8 µM | > 45.8 µM |
| NC(=O)N/N=C/c1ccc([N+](=O)[O-])o1 [Nitrofurazone] | > 45.8 µM | > 45.8 µM |
| COc1ccc2cc1Oc1cc3c(cc1OC)CC[N+](C)(C)[C@H]3Cc1ccc(cc1)Oc1c(OC)c(OC)cc3c1[C@@H](C2)[N+](C)(C)CC3 [Metocurine iodide] | > 45.8 µM | > 45.8 µM |
| C/C(=C(\CCOP(=O)(O)O)SC(=O)c1ccccc1)N(C=O)Cc1cnc(C)nc1N [Benfotiamine] | > 45.8 µM | > 45.8 µM |
| NS(=O)(=O)c1cc2c(cc1Cl)N=CNS2(=O)=O [Chlorothiazide] | > 45.8 µM | > 45.8 µM |
| Cc1cccc(N(C)C(=S)Oc2ccc3c(c2)CCC3)c1 [Tolindate] | > 45.8 µM | > 45.8 µM |
| O=Cc1ccccc1C=O [1,2-Benzenedicarboxaldehyde] | > 45.8 µM | > 45.8 µM |
| O=C(O)CCC/C=C\CC1C(O)CC(O)C1/C=C/C(O)COc1cccc(Cl)c1 (stereo not given) [Cloprostenol (sodium salt)] | > 45.8 µM | > 45.8 µM |
| NCC(O)c1ccc(O)cc1 (stereo not given) [Octopamine] | > 45.8 µM | > 45.8 µM |
| C[Se]CC[C@H](N)C(=O)O [Selenomethionine] | > 45.8 µM | > 45.8 µM |
| NCCc1c[nH]cn1 [Histamine dihydrochloride] | > 45.8 µM | > 45.8 µM |
| O=C1/C(=C2\Nc3ccc(S(=O)(=O)O)cc3C2=O)Nc2ccc(S(=O)(=O)O)cc21 [Indigo carmine] | > 45.8 µM | > 45.8 µM |
| CCOC(=O)COc1ccc2c(C)c(CCN(CC)CC)c(=O)oc2c1 [Chromonar hydrochloride] | > 45.8 µM | > 45.8 µM |
| CC(C)=CCC/C(C)=C/C=C/C(C)=C/C=C/C(C)=C/C=C/C=C(C)/C=C/C=C(C)/C=C/C=C(\C)CCC=C(C)C [Lycopene] | > 45.8 µM | > 45.8 µM |
| CN1CCC(=C2c3ccccc3CCc3sccc32)CC1 [Pizotifen] | > 45.8 µM | > 45.8 µM |

| SMILES | IC50 cell viability (ICRF193 0 nM) | IC50 cell viability (ICRF193 200 nM) |
| --- | --- | --- |
| CCC[C@@H]1C[C@@H](C(=O)N[C@@H]([C@H]2O[C@H](SC)[C@H](O)[C@@H](O)[C@H]2O)[C@@H](C)O)N(C)C1 [Lincomycin hydrochloride] | > 45.8 µM | > 45.8 µM |
| C[C@@H](O)[C@H]1C(=O)N2C(C(=O)[O-])=C(SC3Cn4cnc[n+]4C3)[C@H](C)[C@H]12 (stereo not given in full) [Biapenem] | > 45.8 µM | > 45.8 µM |
| C1CNCCN1 [Piperazine] | > 45.8 µM | > 45.8 µM |
| CCCCCCCCCCCC(=O)OCN1C(=O)CCc2ccc(OCCCCN3CCN(c4cccc(Cl)c4Cl)CC3)cc21 [ARIPIPRAZOLE LAUROXIL] | > 45.8 µM | > 45.8 µM |
| CC/C=C\C/C=C\C/C=C\C/C=C\C/C=C\CCCC(=O)OCC [Eicosapentaenoic acid ethyl ester] | > 45.8 µM | > 45.8 µM |
| CC[N+](CC)(CC(=O)Nc1c(C)cccc1C)Cc1ccccc1 [Denatonium benzoate] | > 45.8 µM | > 45.8 µM |
| COc1c2occc2cc2ccc(=O)oc12 [Methoxsalen] | > 45.8 µM | > 45.8 µM |
| O=S(=O)(O)c1ccc(O)cc1 [4-Phenolsulfonic acid] | > 45.8 µM | > 45.8 µM |
| CC(=O)CCC(=O)O [Calcium levulinate] | > 45.8 µM | > 45.8 µM |
| CCCCCCCCCCCCCCCCCCCCCC(=O)Nc1ccn([C@@H]2O[C@H](CO)[C@@H](O)[C@@H]2O)c(=O)n1 [Enocitabine] | > 45.8 µM | > 45.8 µM |
| CC(/C=C1\SC(=S)N(CC(=O)O)C1=O)=C\c1ccccc1 [Epalrestat] | > 45.8 µM | > 45.8 µM |
| O=C1/C(=C2\Nc3ccccc3C2=O)Nc2ccccc21 [Indigo] | > 45.8 µM | > 45.8 µM |
| COC(=O)[C@@H]1[C@H]2C[C@H]3c4[nH]c5ccccc5c4CCN3C[C@@H]2CC[C@@H]1O [Yohimbine] | > 45.8 µM | > 45.8 µM |
| CCCCN(CCCC)CCCOC(=O)c1ccc(N)cc1 [Butacaine] | > 45.8 µM | > 45.8 µM |
| CN1C(=O)NC(=O)C(C)(C2=CCCCC2)C1=O (stereo not given) [Hexobarbital] | > 45.8 µM | > 45.8 µM |
| CN(CCCCCCN(C)C(=O)Oc1ccc[n+](C)c1)C(=O)Oc1ccc[n+](C)c1 [Distigmine Bromide] | > 45.8 µM | > 45.8 µM |
| O=C1O[C@H](CO)[C@@H](O)[C@H](O)[C@H]1O [Gluconolactone] | > 45.8 µM | > 45.8 µM |
| CO/N=C(/C(=O)N[C@@H]1C(=O)N2C(C(=O)OCOC(=O)C(C)(C)C)=C(C)CS[C@H]12)c1csc(N)n1 [Cefetamet pivoxil HCl] | > 45.8 µM | > 45.8 µM |
| C[C@]12CCC(=O)C=C1CC[C@@H]1[C@@H]2[C@@H](O)C[C@@]2(C)[C@H]1CC[C@]2(O)C(=O)COC(=O)CCC(=O)O [Hydrocortisone 21-hemisuccinate sodium salt] | > 45.8 µM | > 45.8 µM |
| CC(Oc1ccccc1)C(=O)N[C@@H]1C(=O)N2[C@@H]1SC(C)(C)[C@@H]2C(=O)O (stereo not given in full) [Phenethicillin potassium salt] | > 45.8 µM | > 45.8 µM |

| SMILES | IC50 cell viability (ICRF193 0 nM) | IC50 cell viability (ICRF193 200 nM) |
| --- | --- | --- |
| CCn1c(=O)c2c(nc(/C=C/c3ccc(OC)c(OC)c3)n2C)n(CC)c1=O [Istradefylline] | > 45.8 µM | > 45.8 µM |
| O=C(O)Cc1cccc2ccccc12 [1-Naphthaleneacetic acid] | > 45.8 µM | > 45.8 µM |
| NCc1ccc(S(N)(=O)=O)cc1 [Mafenide hydrochloride] | > 45.8 µM | > 45.8 µM |
| COC(=O)c1ccc(O)cc1 [Methylparaben] | > 45.8 µM | > 45.8 µM |
| CC(C)(O)c1ccccc1CC[C@@H](SCC1(CC(=O)O)CC1)c1cccc(/C=C/c2ccc3ccc(Cl)cc3n2)c1 [Montelukast sodium] | > 45.8 µM | > 45.8 µM |
| CO[C@@]1(NC(=O)C2SC(=C(C(N)=O)C(=O)O)S2)C(=O)N2C(C(=O)O)=C(CSc3nnnn3C)CS[C@@H]21 (stereo not given in full) [CEFOTETAN] | > 45.8 µM | > 45.8 µM |
| CC(C)CN(C[C@@H](O)[C@H](Cc1ccccc1)NC(=O)O[C@H]1CCOC1)S(=O)(=O)c1ccc(N)cc1 [Amprenavir] | > 45.8 µM | > 45.8 µM |
| COc1ccccc1O [Guaiacol] | > 45.8 µM | > 45.8 µM |
| CCCCCCCCCCCCCCCC(=O)OCC(=O)[C@@]1(O)[C@H](C)C[C@H]2[C@@H]3CCC4=CC(=O)C=C[C@]4(C)[C@@]3(F)[C@@H](O)C[C@@]21C [Dexamethasone 21-Palmitate] | > 45.8 µM | > 45.8 µM |
| CCOC(=O)C1=C[C@@H](OC(CC)CC)[C@H](NC(C)=O)[C@@H](N)C1 [Oseltamivir Phosphate] | > 45.8 µM | > 45.8 µM |
| CC(=O)O[C@]1(C(C)=O)CC[C@H]2[C@@H]3C=C(Cl)C4=CC(=O)CC[C@]4(C)[C@H]3CC[C@@]21C [Chlormadinone acetate] | > 45.8 µM | > 45.8 µM |
| Cc1ccc(=O)n(-c2ccccc2)c1 [Pirfenidone] | > 45.8 µM | > 45.8 µM |
| O=C(O)CCNC(=O)c1ccc(/N=N/c2ccc(O)c(C(=O)O)c2)cc1 [Balsalazide disodium] | > 45.8 µM | > 45.8 µM |
| CCN[C@@H]1C[C@H](N)[C@@H](O[C@H]2OC(CN)=CC[C@H]2N)[C@H](O)[C@H]1O[C@H]1OC[C@](C)(O)[C@H](NC)[C@H]1O [Netilmicin sulfate] | > 45.8 µM | > 45.8 µM |
| OCCN1CCN(CCC=C2c3ccccc3Sc3ccc(Cl)cc32)CC1 [Zuclopenthixol (-)-10-Camphorsulfonic Acid Salt] | > 45.8 µM | > 45.8 µM |
| CNS(=O)(=O)Cc1ccc2[nH]cc(CCN(C)C)c2c1 [Sumatriptan] | > 45.8 µM | > 45.8 µM |
| Oc1ccc(C2CNCCc3c2cc(O)c(O)c3Cl)cc1 (stereo not given) [Fenoldopam] | > 45.8 µM | > 45.8 µM |
| O=[N+]([O-])c1cc(I)c(O)c(I)c1 [2,6-DIIODO-4-NITROPHENOL] | > 45.8 µM | > 45.8 µM |
| O=C(Cn1c(=O)sc2ccc(Cl)cc21)N1CCN(CCO)CC1 [Tiaramide hydrochloride] | > 45.8 µM | > 45.8 µM |
| C[N+]1(CC2COC(c3ccccc3)(C3CCCCC3)O2)CCCCC1 (stereo not given) [Oxapium iodide] | > 45.8 µM | > 45.8 µM |
